Measured values: patent publication US4224448A, “2'-(5'-Nitrofuryl) substituted quinolines” (priority 1966, dated 1980)
In brackets after ≈: the same amount, converted by molar mass.

Experiments:
Test in all cases: Minimum inhibitory concentration, conventional tube dilution method
Format in all cases: cell-based
[1] = test system: Candida albicans; details: fungus, tube dilution, 37 degrees, 24 hours, between 1 and 6 strains, mg/100 cc, decimal comma, read-out: Minimal Inhibitory Concentration, Cand. Alb.
Description: (§1) The activity of some of the new nitrofuryl quinoline derivatives of the present invention is exemplified in Table 1 against a gram-positive (Staph. aureus), a gram-negative (Salmonella) bacterium and a fungus (Candida albicans). Table 1 indicates the minimum inhibitory concentration of the compound under reference in mg/100 cc required in order to inhibit the growth between 1 and 6 strains of each type. The measurements have been carried out by the conventional tube dilution method at 37 degrees after 24 hours.

[2] = test system: Salmonella; details: gram-negative, tube dilution, 37 degrees, 24 hours, between 1 and 6 strains, mg/100 cc, decimal comma, read-out: Minimal Inhibitory Concentration, Salm.
Description: as §1

[3] = test system: Staph. aureus; details: Staphylococcus aureus; gram-positive; tube dilution, 37 degrees, 24 hours; between 1 and 6 strains; mg/100 cc; decimal comma; read-out: Minimal Inhibitory Concentration, Staph. aureus
Description: as §1

| Compound | MIC [1] | MIC [2] | MIC [3] |
| --- | --- | --- | --- |
| Cc1ccc2c(c1)c(-c1ccc([N+](=O)[O-])o1)cc(C)[n+]2[O-] [O CH3 H NF H CH3 H H] | 2 to 5 µg/mL (≈ 7.04 to 17.6 µM) | > 25 µg/mL | 0.1 µg/mL (≈ 0.352 µM) |
| O=[N+]([O-])c1ccc(-c2cc(CO)nc3ccccc23)o1 [CH2 OH H NF H H H H, 2-Hydroxymethyl-4-[2'-(5'-nitrofuryl)]quinoline] | 5 µg/mL (≈ 18.5 µM) | 5 to 10 µg/mL (≈ 18.5 to 37 µM) | 0.1 µg/mL (≈ 0.37 µM) |
| O=[N+]([O-])c1ccc(-c2ccnc3ccccc23)o1 [H H NF H H H H, 4-[2'-(5'-nitrofuryl)]quinoline] | 1 µg/mL (≈ 4.16 µM) | 5 µg/mL (≈ 20.8 µM) | 0.1 to 0.5 µg/mL (≈ 0.416 to 2.08 µM) |
| CCc1ccc2nc(C)cc(-c3ccc([N+](=O)[O-])o3)c2c1 [CH3 H NF H C2 H5 H H, 2-methyl-4-[2'-(5'-nitrofuryl)]-6-ethyl quinoline] | 25 µg/mL (≈ 88.6 µM) | 25 µg/mL (≈ 88.6 µM) | 0.1 µg/mL (≈ 0.354 µM) |
| Cc1ccc2nc(C)cc(-c3ccc([N+](=O)[O-])o3)c2c1 [CH3 H NF H CH3 H H, 2-methyl-4-[2'-(5'-nitrofuryl)]-6-methyl quinoline] | 5 µg/mL (≈ 18.6 µM) | 5 µg/mL (≈ 18.6 µM) | 0.1 µg/mL (≈ 0.373 µM) |
| CCc1cc(-c2ccc([N+](=O)[O-])o2)c2ccccc2[n+]1[O-] [O C2 H5 H NF H H H H] | 3 µg/mL (≈ 10.6 µM) | 25 to 50 µg/mL (≈ 87.9 to 176 µM) | 0.3 µg/mL (≈ 1.06 µM) |
| Cc1cc(-c2ccc([N+](=O)[O-])o2)c2ccccc2n1 [CH3 H NF H H H H, 2-methyl-4-[2'-(5'-nitrofuryl)] quinoline] | 5 µg/mL (≈ 19.7 µM) | 5 µg/mL (≈ 19.7 µM) | 0.1 to 1 µg/mL (≈ 0.393 to 3.93 µM) |
| Cc1cc(-c2ccc([N+](=O)[O-])o2)c2ccc(Cl)cc2n1 [CH3 H NF H H Cl H, 2-methyl-4-[2'-(5'-nitrofuryl)]-7-chloro quinoline] | 25 µg/mL (≈ 86.6 µM) | 0.5 µg/mL (≈ 1.73 µM) | 0.1 µg/mL (≈ 0.346 µM) |
| Cc1cc(-c2ccc([N+](=O)[O-])o2)c2ccccc2[n+]1[O-] [O CH3 H NF H H H H, 2-methyl-4-[2'-(5'-nitrofuryl)] quinoline N-oxide] | 1 µg/mL (≈ 3.7 µM) | 10 µg/mL (≈ 37 µM) | 0.2 to 0.5 µg/mL (≈ 0.74 to 1.85 µM) |
| Cc1ccc2c(-c3ccc([N+](=O)[O-])o3)cc(C)nc2c1 [CH3 H NF H H CH3 H, 2,7-dimethyl-4-[2'-(5'-nitrofuryl)]quinoline] | 3 µg/mL (≈ 11.2 µM) | 2 to 5 µg/mL (≈ 7.46 to 18.6 µM) | 0.05 to 0.1 µg/mL (≈ 0.186 to 0.373 µM) |
| Cc1cc(-c2ccc([N+](=O)[O-])o2)[n+]([O-])c2ccccc12 [O NF H CH3 H H H H] | 2 to 5 µg/mL (≈ 7.4 to 18.5 µM) | 10 µg/mL (≈ 37 µM) | 1 µg/mL (≈ 3.7 µM) |
| Cc1cc(-c2ccc([N+](=O)[O-])o2)c2ccc(Cl)cc2[n+]1[O-] [O CH3 H NF H H Cl H, 2-methyl-4-[2'-(5'-nitrofuryl)]-7-chloro-quinoline N-oxide] | 2 to 5 µg/mL (≈ 6.56 to 16.4 µM) | > 25 µg/mL | 1 µg/mL (≈ 3.28 µM) |
| O=C(O)c1cc(-c2ccc([N+](=O)[O-])o2)c2ccccc2[n+]1[O-] [O COOH H NF H H H H] | 10 to 25 µg/mL (≈ 33.3 to 83.3 µM) | 50 µg/mL (≈ 167 µM) | 0.5 µg/mL (≈ 1.67 µM) |
| O=C(c1cc(-c2ccc([N+](=O)[O-])o2)c2ccccc2n1)N1CCOCC1 [drawing 11 H NF H H H H] | 50 µg/mL (≈ 142 µM) | 25 to 50 µg/mL (≈ 70.8 to 142 µM) | 0.1 to 0.5 µg/mL (≈ 0.283 to 1.42 µM) |
| CCOc1ccc2c(-c3ccc([N+](=O)[O-])o3)cc(C)nc2c1 [CH3 H NF H H OC2 H5 H, 2-methyl-4-[2'-(5'-nitrofuryl)]-7-ethoxy quinoline] | 25 µg/mL (≈ 83.8 µM) | 5 µg/mL (≈ 16.8 µM) | 0.1 µg/mL (≈ 0.335 µM) |
| COc1ccc2c(-c3ccc([N+](=O)[O-])o3)cc(C)[n+]([O-])c2c1 [O CH3 H NF H H OCH3 H, 2-methyl-4-[2'-(5'-nitrofuryl)]-7-methoxy quinoline N-oxide] | 0.5 µg/mL (≈ 1.67 µM) | 5 µg/mL (≈ 16.7 µM) | 0.1 µg/mL (≈ 0.333 µM) |
| Cc1cc(-c2ccc([N+](=O)[O-])o2)c2c(C)ccc(N)c2n1 [CH3 H NF CH3 H H NH2] | > 50 µg/mL | > 50 µg/mL | 5 µg/mL (≈ 17.6 µM) |

| Compound | MIC [1] | MIC [2] | MIC [3] |
| --- | --- | --- | --- |
| CCOc1ccc2c(-c3ccc([N+](=O)[O-])o3)cc(C(=O)O)nc2c1 [COOH H NF H H OC2 H5 H, 2-carboxy-4-[2'-(5'-nitrofuryl)]-7-ethoxy quinoline] | > 50 µg/mL | 5 µg/mL (≈ 15.2 µM) | 0.5 µg/mL (≈ 1.52 µM) |
| CCCc1cc(-c2ccc([N+](=O)[O-])o2)c2ccc(C)cc2n1 [C3 H7 H NF H H CH 3 H] | > 50 µg/mL | > 50 µg/mL | 5 µg/mL (≈ 16.9 µM) |
| Cc1cc(-c2ccc([N+](=O)[O-])o2)c2ccc(NC(=O)C(F)(F)F)c(C)c2n1 [CH3 H NF H H NHCOCF3 CH3] | > 50 µg/mL | > 50 µg/mL | 0.5 µg/mL (≈ 1.32 µM) |
| O=C(O)c1cc(-c2ccc([N+](=O)[O-])o2)c2ccccc2n1 [COOH H NF H H H H, 2-carboxy-4-[2'-(5'-nitrofuryl)]quinoline] | 30 to 50 µg/mL (≈ 106 to 176 µM) | > 10 µg/mL | 1 µg/mL (≈ 3.52 µM) |
| CCc1cc(-c2ccc([N+](=O)[O-])o2)c2ccccc2n1 [C2 H5 H NF H H H H, 2-ethyl-4-[2'-(5'-nitrofuryl)]quinoline] | 5 µg/mL (≈ 18.6 µM) | > 50 µg/mL | 0.1 µg/mL (≈ 0.373 µM) |
| COc1ccc(OC)c2c(-c3ccc([N+](=O)[O-])o3)cc(C)nc12 [CH3 H NF OCH3 H H OCH3, 2-methyl-4-[2'-(5'-nitrofuryl)]-5,8-dimethoxy quinoline] | > 50 µg/mL | > 50 µg/mL | 50 µg/mL (≈ 159 µM) |
| CCOc1ccc2c(-c3ccc([N+](=O)[O-])o3)cc(C)[n+]([O-])c2c1 [O CH3 H NF H H OC2 H5 H] | 10 µg/mL (≈ 31.8 µM) | 10 to 50 µg/mL (≈ 31.8 to 159 µM) | 0.05 to 0.1 µg/mL (≈ 0.159 to 0.318 µM) |
| Cc1cc(-c2ccc([N+](=O)[O-])o2)c2cccc(C)c2n1 [CH3 H NF H H H CH3, 2,8-dimethyl-4-[2'-(5'-nitrofuryl)]quinoline] | 5 µg/mL (≈ 18.6 µM) | > 50 µg/mL | 0.3 µg/mL (≈ 1.12 µM) |
| COc1cc(OC)c2c(-c3ccc([N+](=O)[O-])o3)cc(C)nc2c1 [CH3 H NF OCH3 H OCH3 H] | > 50 µg/mL | > 50 µg/mL | 0.5 µg/mL (≈ 1.59 µM) |
| Cc1cc(-c2ccc([N+](=O)[O-])o2)c2ccc(O)cc2n1 [CH3 H NF H H OH H, 2-methyl-4-[2'-(5'-nitrofuryl)]-7-hydroxy quinoline] | 10 µg/mL (≈ 37 µM) | 5 µg/mL (≈ 18.5 µM) | 0.1 µg/mL (≈ 0.37 µM) |
| CCCCOc1cc2nc(C)cc(-c3ccc([N+](=O)[O-])o3)c2cc1OCCCC [CH3 H NF H OC4 H9 OC4 H9 H] | > 50 µg/mL | 10 µg/mL (≈ 25.1 µM) | 5 µg/mL (≈ 12.5 µM) |
| Cc1ccc2c(-c3ccc([N+](=O)[O-])o3)cc(C(=O)O)nc2c1 [COOH H 5NF H H CH3 H, 2-carboxy-4-[2'-(5'-nitrofuryl)]-7-methyl quinoline] | 50 µg/mL (≈ 168 µM) | 25 µg/mL (≈ 83.8 µM) | 0.5 µg/mL (≈ 1.68 µM) |
| CCc1ccc2c(c1)c(-c1ccc([N+](=O)[O-])o1)cc(C)[n+]2[O-] [O CH3 H NF H C2 H5 H H] | 2 to 5 µg/mL (≈ 6.7 to 16.8 µM) | 25 µg/mL (≈ 83.8 µM) | 0.5 µg/mL (≈ 1.68 µM) |
| CCc1ccc2c(c1)c(-c1ccc([N+](=O)[O-])o1)cc(CC)[n+]2[O-] [O C2 H5 H NF H C2 H5 H H] | 5 to 10 µg/mL (≈ 16 to 32 µM) | > 10 µg/mL | 0.1 µg/mL (≈ 0.32 µM) |
| Cc1cc(-c2ccc([N+](=O)[O-])o2)c2cc3ccccc3cc2[n+]1[O-] [O CH3 H NF H drawing 13 H] | 50 µg/mL (≈ 156 µM) | > 50 µg/mL | 0.5 to 1 µg/mL (≈ 1.56 to 3.12 µM) |
| O=[N+]([O-])c1ccc(-c2cc(C(Br)(Br)Br)nc3ccccc23)o1 [CBr3 H NF H H H H, 2-tribromomethyl-4-[2'-(5'-nitrofuryl)]quinoline] | 30 to 50 µg/mL (≈ 61.1 to 102 µM) | 10 µg/mL (≈ 20.4 µM) | 0.5 µg/mL (≈ 1.02 µM) |
